Data set [1] has as its target human dopamine transporter (DAT) (Homo sapiens (Human), UniProt Q01959). The experiment in a line: Scintillation Proximity Assay (SPA) for human DAT binding ([3H]WIN-35,428). The note with it: recombinant human DAT, CHO. From the text:
(§1) Affinity is expressed in terms of inhibition constant (Ki) of the compounds of the invention for DAT, NET and SERT, and it is typically calculated from the IC50 values obtained in competition experiments using Cheng and Prusoff equation (Cheng and Prusoff, Biochem. Pharmacol. 22:3099, 1973). In the context of the present invention pKi values (corresponding to the antilogarithm of Ki) are used instead of Ki; pKi are only estimated to be accurate to about 0.3 log unit.
(§2) Chinese Hamster Ovary (CHO) cells stably expressing either human DAT (hDAT-CHO) or human NET (hNET-CHO) or human SERT (hSERT-CHO) are used for the membrane preparations for radioligand binding assays using Scintillation proximity Assay (SPA) technique. Each cell line is cultured independently in F-12K Nutrient Mixture containing 10% of Fetal Bovine Serum (FBS) supplemented with 450 μg/ml G-418. When cells are at 70-80% of confluence 3 mM Na Butyrate was added to the cell culture medium. After 24 h of incubation, the culture medium was removed and the cells detached with Versene (DAT) or by scraping (NET and SERT). Cell suspension is centrifuged at 41,000 g for 10 minutes at 4° C. The resultant pellets are re-suspended in 15 volumes of Ice-cold buffer (20 mM HEPES, 145 mM NaCl, 5 mM KCl, pH7.3), homogenized using an Ultra Turrax homogeniser and centrifuged as before. The resultant membrane pellets are re-suspended in up to 15 volume of ice-cold buffer, incubated for 20 minutes at 37° C and centrifuged as before at 41,000 g. The final membrane pellets are re-suspended into 5-10 volumes of ice-cold buffer, dispensed into 0.5 ml aliquots and stored at −80° C. until use. Protein concentration for each preparation is determined using Bio-Rad Protein Assay Kit.
(§3) The affinity of the compounds of the invention to the human DAT or NET or SERT transporters is assessed by using the [^3H]WIN-35,428 or [^3H]nisoxetine or [^3H]citalopram binding assays in recombinant human DAT, NET and SERT membranes with the SPA technology. The final assay volume is 50 μL in 384 well plates.
(§4) Briefly, 0.5 μL of test compound in neat DMSO or 0.5 μL of DMSO for total binding (TB) or 0.5 μL of indatraline 1 mM (10 μM final concentration) for non specific binding (NSB) are added to the assay plate. 50 μL of the SPA mixture is added to each well, containing: 30 μg/mL or 10 μg/mL or 25 μg/mL DAT, NET, SERT membranes, respectively; 5 nM [^3H]WIN-35,428 or 5 nM [^3H]nisoxetine or 1 nM [^3H]citalopram, for DAT, NET, SERT assay, respectively; 2.5 mg/mL or 1 mg/mL or 4 mg/mL WGA-PVT SPA beads (PerkinElmer RPNQ0001, for DAT, NET, SERT assay, respectively. All components are added to Assay Buffer (20 mM HEPES pH 7.4, 145 mM NaCl, 5 mM KCl, 0.01% Pluronic F-127). 0.02% BSA was used for DAT binding only. Plates are sealed with Topseal A and centrifuged 1 min, 800 rpm. Plates are loaded into a 1450 Microbeta TriLux (Perkin-Elmer) plate reader and the radioactivity counted after at least 4 hrs or overnight incubation at room temperature. Curve fitting and IC50 estimations are performed using a four parameter model in XLfit (IDBS, Guilford, UK) for Microdoft Excel (Microsoft, Redmond, Wash.).
The potency of the compounds of the invention in blocking the DAT function is measured using an uptake assay in a recombinant CHO cell line expressing human DAT (hDAT-CHO). Potency is measured in terms of pIC50 by testing the compounds of invention for the inhibition of [^3H]-dopamine uptake in DAT-CHO cells using a SPA technology in 384 well format.
Briefly, on the days of the experiment hDAT-CHO cells are detached using Versene and added (75,000 cells/mL) to the SPA Mixture, which contains the following components in Assay Buffer (20 mM HEPES, 145 mM NaCl, 5 mM KCl, 2 mM CaCl2, 1 mM MgCl2 and 1 g/L glucose, pH 7.3): 0.02% w/v of Pluronic F127, 2 mg/mL SPA Imaging beads (RPNQ0260, PerkinElmer), 10 μM pargyline and 80 nM of [^3H]-dopamine. […]
(In general: In a scintillation proximity assay essentially only radioactivity close to the scintillant gives light.)

The target of data set [2] is human norepinephrine transporter (NET) (Homo sapiens (Human), UniProt P23975). The experiment in a line: Scintillation Proximity Assay (SPA) for human NET binding ([3H]nisoxetine). The following applies: recombinant human NET, CHO membranes.
Description: as §1, §2, §3, §4

The target of data set [3] is human serotonin transporter (SERT) (Homo sapiens (Human), UniProt P31645). The experiment in a line: Scintillation Proximity Assay (SPA) for human SERT binding ([3H]citalopram). The following applies: recombinant human SERT, CHO membranes.
Description: as §1, §2, §3, §4

The target in data set [4] is human ERG potassium channel (hERG) (Homo sapiens (Human), UniProt Q12809). The experiment in a line: hERG channel tail current recording using Rapid ICE automated patch-clamp. It counts as cell-based. The note with it: HEK293 cells stably transfected with hERG. As to the method: The potency of the compounds of the invention in inhibiting human ERG potassium channel (hERG) tail current is assessed in a recombinant HEK293 cell line stably transfected with hERG cDNA using Rapid ICE™ (Rapid Ion Channel Electrophysiology) assay. Rapid ICE™ is an automated patch-clamp assay utilizing the PatchXpress 7000A system (Molecular Devices Corporation) or the QPatch HTX system (Sophion Bioscience A/S).
Briefly cells are cultivated for 24 to 72 hours before recordings in minimum essential medium supplemented with 10% FBS, 1% non-essential amino acids, 1% sodium pyruvate, 2 mM L-glutamine. The day of the experiment cells are detached with TrypLE and prepared to be loaded on the instrument. For PatchXpress cells are finally resuspended in 150 μl of Extracellular Buffer whereas for QPatch cells are resuspended in 7 ml Serum-Free Media containing 25 mM Hepes and Soybean trypsin inhibitor and immediately placed in the cell storage tank of the machine. The composition of the Extracellular Buffer is (mM): NaCl 137; KCl 4; CaCl2 1.8; MgCl2 1.0; D-glucose 10; N 2 hydroxyethylpiperazine-N′-2-ethanesulfonic acid (HEPES) 10; pH 7.4 with 1 M NaOH. The composition of the pipette solution is (mM): KCl 130; MgCl2 1.0; Ethylene glycol-bis(β-aminoethyl ether)-N,N,N′,N′-tetraacetic acid (EGTA) 5; MgATP 5; HEPES 10; pH 7.2 with 1 M KOH. The voltage protocol includes the following steps: step from −80 mV to −50 mV for 200 ms, +20 mV for 4.8 s, step to −50 mV for 5 s then step to the holding potential of −80 mV. Compounds of the invention are dissolved in DMSO and diluted in Extracellular Buffer to achieve final test concentrations (0.1, 1 and 10 μM) in 0.1% DMSO. The voltage protocol is run and recorded continuously during the experiment. The vehicle, corresponding to 0.1% DMSO in Extracellular Buffer, is then applied for 3 min followed by the test substance in triplicate. The standard combined exposure time is 5 min. The average of tail current amplitude values recorded from 4 sequential voltage pulses is used to calculate for each cell the effect of the test substance by calculating the residual current (% control) compared with vehicle pre-treatment. Data are reported as % inhibition for each concentration tested and IC50 values are estimated using DataXpress or QPatch software. At least two cells are tested, more if results diverge.
In general terms: Block of hERG is tested as a sign of cardiac risk.

Chain of human dopamine transporter (DAT) (Q01959 whole entry): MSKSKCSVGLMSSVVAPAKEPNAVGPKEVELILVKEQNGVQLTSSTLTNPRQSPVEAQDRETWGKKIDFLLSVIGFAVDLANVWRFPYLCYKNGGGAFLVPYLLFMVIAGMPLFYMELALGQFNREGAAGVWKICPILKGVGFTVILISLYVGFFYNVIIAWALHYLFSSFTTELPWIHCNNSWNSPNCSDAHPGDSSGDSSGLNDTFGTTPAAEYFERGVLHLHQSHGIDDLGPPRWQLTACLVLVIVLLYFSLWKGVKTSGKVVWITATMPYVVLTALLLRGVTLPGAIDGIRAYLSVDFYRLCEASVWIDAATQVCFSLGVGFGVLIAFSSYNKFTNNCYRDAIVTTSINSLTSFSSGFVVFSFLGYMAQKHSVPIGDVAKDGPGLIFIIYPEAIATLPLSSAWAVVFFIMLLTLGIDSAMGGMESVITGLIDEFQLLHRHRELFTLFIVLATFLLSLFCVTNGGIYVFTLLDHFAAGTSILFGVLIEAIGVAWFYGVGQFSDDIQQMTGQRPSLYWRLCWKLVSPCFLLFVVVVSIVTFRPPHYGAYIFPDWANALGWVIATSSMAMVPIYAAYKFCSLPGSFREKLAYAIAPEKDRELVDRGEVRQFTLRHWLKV
Chain of human serotonin transporter (SERT) (P31645 whole entry): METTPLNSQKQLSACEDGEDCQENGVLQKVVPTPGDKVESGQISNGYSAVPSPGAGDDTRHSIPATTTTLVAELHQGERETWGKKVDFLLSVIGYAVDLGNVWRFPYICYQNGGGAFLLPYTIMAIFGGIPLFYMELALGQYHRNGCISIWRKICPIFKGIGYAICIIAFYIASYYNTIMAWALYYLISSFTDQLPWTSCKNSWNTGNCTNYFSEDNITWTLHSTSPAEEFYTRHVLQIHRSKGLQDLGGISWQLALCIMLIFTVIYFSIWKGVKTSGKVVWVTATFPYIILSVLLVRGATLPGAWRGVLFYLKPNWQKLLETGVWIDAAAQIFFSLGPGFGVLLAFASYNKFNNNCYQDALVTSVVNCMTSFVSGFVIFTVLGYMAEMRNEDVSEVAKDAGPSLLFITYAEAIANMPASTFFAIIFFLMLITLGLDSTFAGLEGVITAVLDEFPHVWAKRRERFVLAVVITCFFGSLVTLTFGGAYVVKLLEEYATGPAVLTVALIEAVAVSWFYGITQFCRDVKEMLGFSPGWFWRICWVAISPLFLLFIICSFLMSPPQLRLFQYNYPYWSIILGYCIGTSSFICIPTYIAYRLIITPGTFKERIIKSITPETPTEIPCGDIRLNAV
Chain of human ERG potassium channel (hERG) (Q12809 whole entry): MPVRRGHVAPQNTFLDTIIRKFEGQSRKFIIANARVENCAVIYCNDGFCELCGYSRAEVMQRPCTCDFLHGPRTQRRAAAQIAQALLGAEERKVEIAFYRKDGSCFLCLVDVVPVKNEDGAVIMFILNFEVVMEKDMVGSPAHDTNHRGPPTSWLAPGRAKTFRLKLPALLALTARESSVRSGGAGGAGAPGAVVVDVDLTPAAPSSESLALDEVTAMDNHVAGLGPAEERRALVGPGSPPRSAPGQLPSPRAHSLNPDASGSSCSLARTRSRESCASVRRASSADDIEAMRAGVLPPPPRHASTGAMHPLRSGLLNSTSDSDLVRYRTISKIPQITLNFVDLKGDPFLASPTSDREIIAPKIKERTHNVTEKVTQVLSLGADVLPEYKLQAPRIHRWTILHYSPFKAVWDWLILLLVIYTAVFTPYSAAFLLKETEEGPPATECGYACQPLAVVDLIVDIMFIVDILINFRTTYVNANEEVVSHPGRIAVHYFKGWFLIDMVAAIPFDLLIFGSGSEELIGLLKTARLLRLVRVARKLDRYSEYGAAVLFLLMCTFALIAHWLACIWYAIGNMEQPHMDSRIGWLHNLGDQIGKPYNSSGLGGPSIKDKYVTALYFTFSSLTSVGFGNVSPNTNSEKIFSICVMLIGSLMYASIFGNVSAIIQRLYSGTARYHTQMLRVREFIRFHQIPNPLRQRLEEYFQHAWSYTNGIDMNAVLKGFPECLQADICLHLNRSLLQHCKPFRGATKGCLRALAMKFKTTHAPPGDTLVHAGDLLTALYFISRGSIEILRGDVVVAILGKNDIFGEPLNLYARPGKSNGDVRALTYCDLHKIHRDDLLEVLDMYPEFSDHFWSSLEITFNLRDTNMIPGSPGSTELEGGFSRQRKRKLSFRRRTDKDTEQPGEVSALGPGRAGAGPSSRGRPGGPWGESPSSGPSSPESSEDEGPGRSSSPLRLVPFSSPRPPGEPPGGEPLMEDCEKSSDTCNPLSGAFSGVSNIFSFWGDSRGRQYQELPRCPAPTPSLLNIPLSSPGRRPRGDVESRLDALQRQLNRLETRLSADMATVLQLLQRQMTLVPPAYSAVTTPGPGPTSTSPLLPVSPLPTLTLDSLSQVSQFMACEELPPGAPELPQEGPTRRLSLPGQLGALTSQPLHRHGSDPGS
Chain of human norepinephrine transporter (NET) (P23975 whole entry): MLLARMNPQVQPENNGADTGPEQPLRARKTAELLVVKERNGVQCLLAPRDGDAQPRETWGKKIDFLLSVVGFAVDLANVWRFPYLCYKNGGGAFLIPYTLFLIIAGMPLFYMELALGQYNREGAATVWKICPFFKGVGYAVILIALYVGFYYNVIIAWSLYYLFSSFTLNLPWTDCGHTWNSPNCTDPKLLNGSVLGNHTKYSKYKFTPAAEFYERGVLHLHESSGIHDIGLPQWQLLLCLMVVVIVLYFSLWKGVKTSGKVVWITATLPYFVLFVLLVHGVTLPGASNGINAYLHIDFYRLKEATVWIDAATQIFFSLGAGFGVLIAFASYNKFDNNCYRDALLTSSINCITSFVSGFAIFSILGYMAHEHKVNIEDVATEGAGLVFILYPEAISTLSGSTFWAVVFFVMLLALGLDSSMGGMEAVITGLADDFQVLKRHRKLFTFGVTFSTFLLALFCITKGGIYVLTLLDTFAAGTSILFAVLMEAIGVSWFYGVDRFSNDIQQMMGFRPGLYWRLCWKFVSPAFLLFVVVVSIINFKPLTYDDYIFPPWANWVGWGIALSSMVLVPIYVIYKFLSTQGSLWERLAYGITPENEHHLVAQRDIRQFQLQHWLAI

Usually IC50 stands for the concentration that inhibits the measured activity by half. With `CC(C)C(=O)NCC1(O)CCN(c2nc(Oc3cccc(F)c3)cc(C(F)(F)F)n2)CC1` [Example 21, N-({1-[4-(3-fluorophenoxy)-6-(trifluoromethyl)pyrimidin-2-yl]-4-hydroxypiperidin-4-yl}methyl)-2-methylpropanamide], the “pIC50 DAT” value in data set [1] stood at 7.84. In addition, the “pIC50 NET” value in data set [2] was found to be 4.75. The IC50 is over 100 µM in data set [3] and over 10 µM in data set [4].
Regarding `O=C(NCC1(O)CCN(c2nc(Oc3cccc(F)c3)cc(C(F)(F)F)n2)CC1)C1CNC1` [Example 25, N-({1-[4-(3-fluorophenoxy)-6-(trifluoromethyl)pyrimidin-2-yl]-4-hydroxypiperidin-4-yl}methyl)azetidine-3-carboxamide], in data set [1], the “pIC50 DAT” value worked out at 8.30. Further, in data set [2], the “pIC50 NET” value is listed as 5.70. Moreover, the IC50 in data set [3] was 35.5 µM; in data set [4], over 10 µM.
For `O=C(NCC1(O)CCN(c2nc(Oc3cccc(F)c3)cc(C(F)(F)F)n2)CC1)c1ccccc1` [Example 26, N-({1-[4-(3-fluorophenoxy)-6-(trifluoromethyl)pyrimidin-2-yl]-4-hydroxypiperidin-4-yl}methyl)benzamide], in data set [1], the “pIC50 DAT” value came out at 7.65. Also, the IC50 in data set [2] and in data set [3] was over 100 µM each time. In addition, the “pIC50 hERG” value in data set [4] was found to be 5.5.
As for `O=C(NCC1(O)CCN(c2nc(Oc3cccc(F)c3)cc(C(F)(F)F)n2)CC1)c1cn[nH]c1` [Example 27, N-({1-[4-(3-fluorophenoxy)-6-(trifluoromethyl)pyrimidin-2-yl]-4-hydroxypiperidin-4-yl}methyl)-1H-pyrazole-4-carboxamide], in data set [1], the “pIC50 DAT” value came to 7.72. Besides, the “pIC50 NET” value in data set [2] was found to be 5.65. Also, in data set [3], the IC50 is 34.7 µM. For the same molecule, the “pIC50 hERG” value in data set [4] was determined as 5.3.
The corresponding values for `O=C(NCC1(O)CCN(c2nc(Oc3cccc(F)c3)cc(C(F)(F)F)n2)CC1)c1cnccn1` [Example 28, N-({1-[4-(3-fluorophenoxy)-6-(trifluoromethyl)pyrimidin-2-yl]-4-hydroxypiperidin-4-yl}methyl)pyrazine-2-carboxamide] are 7.86, 5.96, over 100 µM and 5.5.
Take `NCC(=O)NCC1(O)CCN(c2nc(Oc3cccc(F)c3)cc(C(F)(F)F)n2)CC1` [Example 29, 2-amino-N-({1-[4-(3-fluorophenoxy)-6-(trifluoromethyl)pyrimidin-2-yl]-4-hydroxypiperidin-4-yl}methyl)acetamide]: the “pIC50 DAT” value in data set [1] was determined as 8.22. The “pIC50 NET” value in data set [2] amounted to 5.77. For the same molecule, the IC50 in data set [3] is 19.1 µM. Besides, in data set [4], the “pIC50 hERG” value is reported as 5.4.
For `NCC1(O)CCN(c2nc(Oc3cccc(F)c3)cc(C(F)(F)F)n2)C1` (stereo not shown) [Example 33, 3-(aminomethyl)-1-[4-(3-fluorophenoxy)-6-(trifluoromethyl)pyrimidin-2-yl]pyrrolidin-3-ol], in that order: 8.86, 6.52, 19.1 µM and 5.8.
The corresponding values for `Fc1cccc(Oc2cc(C(F)(F)F)nc(N3CCc4nc[nH]c4C3)n2)c1` [Example 36, 4-(3-fluorophenoxy)-2-{3H,4H,5H,6H,7H-imidazo[4,5-c]pyridin-5-yl}-6-(trifluoromethyl)pyrimidine] are 7.90, 6.01, over 100 µM and 5.6.
Take `Cl.Fc1cccc(Oc2cc(C(F)(F)F)nc(N3CCC4NCCCC4C3)n2)c1` (stereo not shown) [Example 39, 6-[4-(3-fluorophenoxy)-6-(trifluoromethyl)pyrimidin-2-yl]-decahydro-1,6-naphthyridine hydrochloride]: the “pIC50 DAT” value in data set [1] came out at 8.90. Further, the “pIC50 NET” value in data set [2] stood at 7.51. For the same molecule, in data set [3], the IC50 was 3.02 µM. In addition, in data set [4], the “pIC50 hERG” value was 6.2.
On to “(3S or 3R)-3-[(cyclopropylamino)methyl]-1-[4-(3-fluorophenoxy)-6-(trifluoromethyl)pyrimidin-2-yl]pyrrolidin-3-ol [Example 31]”, for which the “pIC50 DAT” value in data set [1] came out at 8.75. Further, in data set [2], the “pIC50 NET” value came out at 6.86. Also, in data set [3], the “pIC50 SERT” value was determined as 4.46. Moreover, the “pIC50 hERG” value in data set [4] was 5.7.
